The text below walks through data of publication PMC6154605, “Multi-Anti-Parasitic Activity of Arylidene Ketones and Thiazolidene Hydrazines against Trypanosoma cruzi and Leishmania spp” (Molecules : A Journal of Synthetic Chemistry and Natural …, 2017).

The subject of one assay is NCTC929 fibroblasts. Kind of assay: Nonspecific cytotoxicity on fibroblasts, resazurin. The class given is cell-based. The settings on record: NCTC-929, 24 h; read-out: IC50 ± SD Fibroblast NCTC929. As for the experimental part:
To establish the selectivity of the compounds against the parasites, nonspecific cytotoxicity against mammalian cells, using J774.1 murine macrophages and fibroblast NCTC929, was studied for the most relevant derivatives. The selectivity indexes were calculated as the ratio between cytotoxicity for mammalian cells and the anti-parasitic activity (Table 2).
NCTC-Clone 929 were grown in minimal essential medium (Sigma) supplemented with 10% heat-inactivated FBS, penicillin G (100 U/mL) and streptomycin (100 µg/mL). Cell cultures were maintained at 37 °C in a humidified 5% CO2 atmosphere. The procedure for cell viability measurement was evaluated with resazurin by a colorimetric method. The cells were plated in 96 microtiter plates at 3.00 × 10^4 cells/well in 100 µL growth medium. The cells were grown overnight at 37 °C, 5% CO2. Thereafter, the medium was removed, and the compounds were added to 200 µL of medium for 24 h. After incubation, 20 µL of a 2 mM resazurin solution were added to each well. The plates were incubated for 3 h to allow optimal oxidation-reduction. The reduction of resazurin was determined by dual wavelength absorbance measurement at 490 and 595 nm. The background was subtracted. Each concentration was assayed three times. Medium and drug controls were used in each test as blanks.
Background: The colour change of resazurin is a common sign of viable cells or microbes.

Assay [1] has as its system J774.1 murine macrophages. As to conditions: J774.1; read-out: IC50 ± SD Murine Macrophages; cited from earlier work.
In assay [2] the test system is T. cruzi epimastigotes, Tulahuen 2 strain (genotype TcVI). The settings on record: cited from earlier work; for SI J774.1/ T. cruzi: ratio IC50 mammalian cell / IC50 parasite (epimastigotes); for IC50: read-out: IC50 ± SD Epimastigotes T. cruzi.
The subject of assay [3] is L. infantum promastigotes. Kind of assay: Leishmanicidal activity on promastigotes, resazurin. Format: cell-based, Leishmania infantum. As to conditions: for IC50: 48 h, read-out: IC50 ± SD Promastigotes L. infantum; for SI NCTC/ L. infantum: ratio IC50 mammalian cell / IC50 parasite (promastigotes). The source says: (§1) We initially selected compounds previously reported to have anti-T. cruzi activity from our chemical library to evaluate their leishmanicidal activity. […]. To evaluate their activity in Leishmania spp., we performed a phenotypic screening using the promastigote form of L. infantum (MHOM/FR/91/LEM-2259) and L. braziliensis ([…]) (Table 1A for the thiazolidenehydrazine derivate and Table 1B for the arylideneketones family).
(§2) A culture of L. braziliensis (MHOM/BR/75/M2904) and L. infantum (MHOM/FR/91/LEM2259V) was obtained from the Facultad de Farmacia (Universidad Complutense, Madrid, Spain). The maintenance of the strains, the form of cultivation and the isolation of the shape of the promastigote were performed following the procedures described by Roldos et al.. The promastigotes were grown at 22 °C in Schneider’s Drosophila medium supplemented with 20% FBS. The assay was performed using a modification of a previous method. Promastigotes (2 × 10^6 parasites/well) were cultivated in 96-well plastic plates. Compounds were dissolved in dimethylsulfoxide (DMSO). Different dilutions of the compounds with a final volume up to 200 µL were added. After 48 h at 26 °C, 20 µL of a 2 mM resazurin solution were added, and the oxidation-reduction was quantified at 570 and 600 nm. The solution of resazurin was prepared at 2.5 mM in phosphate buffered solution (PBS), pH 7.4, and filtered through 0.22-µm membranes prior to use. All tests were carried out in triplicate. Resazurin sodium salt was obtained from Sigma-Aldrich (St. Louis, MO, USA) and stored at 4 °C protected from light. The efficacy of each compound was estimated by calculating the IC50 values. Each antiproliferative experiment was done in duplicate, and each concentration was tested in triplicate.

Assay [4] concerns L. braziliensis promastigotes. Described as above. Format: cell-based, Leishmania braziliensis. As to conditions: for IC50: 48 h, read-out: IC50 ± SD Promastigotes L. braziliensis; for SI NCTC/ L. braziliensis: ratio IC50 mammalian cell / IC50 parasite (promastigotes).
Description: as §1, §2

For assay [5], the system named is T. cruzi epimastigotes, Tulahuen 2 strain (genotype TcVI). Kind of assay: In vitro anti-T. cruzi activity, growth inhibition of epimastigotes. The settings on record: for IC50: Trypanosoma cruzi, TULAHUEN; for Trypanocidal activity on T. cruzi in words: molecular stripping, epimastigotes. Format: cell-based, Trypanosoma cruzi. As for the experimental part:
For the in vitro anti-T. cruzi activity, we used epimastigotes of the Tulahuen 2 strain (genotype TcVI) grown in an axenic milieu (BHI-Tryptose). Cells from a 5–7-day-old culture were inoculated in fresh culture milieu to give an initial concentration of 1.00 × 10^6 cells/mL. The absorbance at 600 nm of the cells in culture was measured every day. At Day 5, the milieu was inoculated with different quantities of the compounds from a stock solution in DMSO (DMSO concentration in the culture milieu never exceeded 0.4%). The control was made in the presence of 0.4% DMSO and in the absence of compounds. Each concentration of compound was evaluated in duplicate. At Day 5, the absorbance of the culture was measured and related to the control. […] Each antiproliferative experiment was done in duplicate, and each concentration was tested in triplicate.

Where [6] appears, read: Tulahuen 2 strain, read-out: IC50 ± SD Epimastigotes T. cruzi.
Setting [7] is: Figure 4, molecular stripping of HIT1, read-out: Effect of structural change on trypanocidal activity (emoticon code).

Molecules are shown by their SMILES. Like-named read-outs stand apart in the source and are kept apart here. Marks after values point to notes of the source that are not given here. Some results are limits rather than exact numbers.

Turning to `O=C1/C(=C/C=C/c2cccs2)CCC/C1=C\C=C\c1cccs1` [EA156], the IC50 with NCTC929 fibroblasts was 1980 ± 20 µM; in assay [1], 20 ± 1 µM; in assay [2], 0.6 ± 0.2 µM; in assay [3] (Leishmania infantum), 16 ± 3 µM; in assay [4] (Leishmania braziliensis), greater than 100 µM. For the same molecule, in assay [2], the “SI J774.1/ T. cruzi” value is 33 ^c. Also, the “SI NCTC/ L. infantum” value in assay [3] was 124.

Consider `C=CCn1c(-c2ccc(Cl)cc2)cs\c1=N/N=C/C=C/C=C/c1ccco1` [GATA2], for which, in assay [5] (setting [6]), the IC50 is 10 ± 2 µM.

With `O=C1/C(=C/C=C/c2ccccc2)CCC/C1=C\C=C\c1ccccc1` [EA143], the figures for the IC50 in assay [5] (setting [6]), in assay [3] (Leishmania infantum) and in assay [4] (Leishmania braziliensis) were 14 ± 3 µM, greater than 25 µM and greater than 25 µM, respectively.

Turning to `C=CCn1c(C(=O)N2CCSCC2)csc1=NN=CC=Cc1ccco1` [GATjm18], the IC50 in assay [5] (setting [6]) turned out to be 2.7 ± 0.5 µM. In addition, the “Trypanocidal activity on T. cruzi in words” value (shortened to “Trypanocidal activity”) in assay [5] is recorded as “the activity was maintained”.

Turning to `Nc1nc(-c2ccc(Cl)cc2)cs1` [GAT2012, 4(4-Chlorophenyl)-thiazol-2(3H)-ylidene-2-amine], the IC50 in assay [5] (setting [6]) is greater than 25 µM. For the same molecule, the “Trypanocidal activity” value in assay [5] is “lack of activity”.

Regarding `C=CCn1c(C(=O)CN2CCN(Cc3ccccc3)CC2)cs/c1=N/N=C\C=C\c1ccco1` [GATk5, 1-((Z)-3-allyl-2-((E)-((E)-3-(furan-2-yl)allylidene)hydrazono)-2,3-dihydrothiazol-4-yl)-2-(4-benzylpiperazin-1-yl)ethanone], the IC50 in assay [5] (setting [7]) and in assay [5] (setting [6]) was greater than 25 µM each time.

Regarding `O=C(/C=C/C=C/C=C/c1cccs1)/C=C/C=C/C=C/c1cccs1` [EA152], the values for the IC50 in assay [5] (setting [6]), in assay [3] (Leishmania infantum) and in assay [4] (Leishmania braziliensis) were greater than 25 µM, 30 ± 8 µM and greater than 100 µM, respectively.

`O=C(/C=C/c1ccco1)/C=C/c1ccco1` [EA134]: the IC50 is 114 ± 2 µM in the assay with NCTC929 fibroblasts; 115 ± 6 µM in assay [1]; 24 ± 2 µM in assay [2]; 6 ± 2 µM in assay [3] (Leishmania infantum); 10 ± 6 µM in assay [4] (Leishmania braziliensis). Further, in assay [2], the “SI J774.1/ T. cruzi” value is listed as 5 ^c. Besides, in assay [3], the “SI NCTC/ L. infantum” value is given as 19. In addition, in assay [4], the “SI NCTC/ L. braziliensis” value is 11.

Take `O=C1/C(=C/c2ccco2)CCC/C1=C\c1ccco1` [EA154]: the IC50 in assay [5] (setting [6]) was 7 ± 2 µM; in assay [3] (Leishmania infantum) it was greater than 25 µM; in assay [4] (Leishmania braziliensis), greater than 25 µM.

In the case of `O=C(C=Cc1ccco1)N1CCN(CC=Cc2ccccc2)CC1` [GAT0804], the IC50 in assay [5] (setting [7]) was greater than 25 µM.

Turning to `CN1C/C(=C\C=C\c2ccco2)C(=O)/C(=C/C=C/c2ccco2)C1` [Pg150, (3E,5E)-3,5-Bis((E)-3-(furan-2-yl)allylidene)-1-methylpiperidin-4-one], the IC50 in assay [5] (setting [6]), in assay [3] (Leishmania infantum) and in assay [4] (Leishmania braziliensis) was greater than 25 µM each time. In addition, the “Trypanocidal activity” value in assay [5] is recorded as “the activity was completely lost”.

On to `C=CCn1c(-c2ccc(Br)cc2)cs\c1=N/N=C/C(C)=C/c1ccco1` [GAT2015], for which the IC50 in assay [3] and in assay [4] was greater than 25 µM each time.

In the case of `O=C(/C=C/C=C/c1cccs1)/C=C/C=C/c1cccs1` [EA141], the IC50 in the assay on NCTC929 fibroblasts was 1700 ± 40 µM; in assay [1], 10 ± 2 µM; in assay [2] it was 12.6 ± 1.4 µM; in assay [3] (Leishmania infantum), 19 ± 5 µM; in assay [4] (Leishmania braziliensis) it was 36 ± 3 µM. Further, in assay [2], the “SI J774.1/ T. cruzi” value is on record as 1 ^c. Further, the “SI NCTC/ L. infantum” value in assay [3] came out at 90. The “SI NCTC/ L. braziliensis” value in assay [4] was determined as 47.

`O=C1/C(=C/c2ccccc2)CCC/C1=C\c1ccccc1` [EA142]: the results for the IC50 in assay [2], in assay [3] (Leishmania infantum) and in assay [4] (Leishmania braziliensis) were 5.1 ± 0.3 µM, 9.6 ± 0.9 µM and 4.2 ± 0.7 µM, respectively.

As to `O=C(/C=C/C=C/c1ccccc1)/C=C/C=C/c1ccccc1` [EA139], the values for the IC50 in assay [5] (setting [6]), in assay [3] (Leishmania infantum) and in assay [4] (Leishmania braziliensis) were 11 ± 1 µM, greater than 25 µM and greater than 25 µM, respectively.

On to `C=CCn1c(C(=O)NN2CCN(C/C=C/c3ccccc3)CC2)cs\c1=N/N=C/C=C/c1ccco1` [GAT1613], for which the IC50 in assay [5] (setting [6]) amounted to 20 ± 2 µM. Further, the “Trypanocidal activity” value in assay [5] is on record as “the activity was lost”.

Turning to `C=CCn1c(C(=O)CN2CCN(c3ccccc3)CC2)csc1=NN=CC=Cc1ccco1` [GATk1, (2E,2Z)-2-(2-((E)-3-(furan-2-yl)propeniliden)hydrazono)-(3-allyl-2,3-dihydrothiazol-4-yl)-2-(4-phenylpiperazin-1-yl)ethanone], the IC50 in assay [5] (setting [7]) and in assay [5] (setting [6]) was greater than 25 µM throughout.

For `O=C1/C(=C/C=C/c2cccs2)CC/C1=C\C=C\c1cccs1` [EA160], the IC50 is 4909 ± 36 µM in the assay on NCTC929 fibroblasts; 15 ± 1 µM in assay [1]; 0.04 ± 0.01 µM in assay [2]; 11 ± 3 µM in assay [3] (Leishmania infantum); greater than 100 µM in assay [4] (Leishmania braziliensis). In addition, the “SI J774.1/ T. cruzi” value in assay [2] is listed as 375 ^c. Further, in assay [3], the “SI NCTC/ L. infantum” value is 446.

As to `Clc1ccc(-c2csc(/N=C/C=C/c3ccco3)n2)cc1` [GAT2112, (E)-4-(4-Chlorophenyl)-N-((E)-3-(furan-2-yl)allylidene)thiazol-2-amine], the “Trypanocidal activity” value in assay [5] is on record as “the activity was lost”.

`O=C1/C(=C/C=C/c2ccco2)CC/C1=C\C=C\c1ccco1` [EA161]: the IC50 was 756 ± 17 µM in the assay on NCTC929 fibroblasts; 19 ± 2 µM in assay [1]; 5.4 ± 1.6 µM in assay [2]; 16 ± 4 µM in assay [3] (Leishmania infantum); 18 ± 4 µM in assay [4] (Leishmania braziliensis). Further, the “SI J774.1/ T. cruzi” value in assay [2] is given as 4 ^c. The “SI NCTC/ L. infantum” value in assay [3] amounted to 47. Further, the “SI NCTC/ L. braziliensis” value in assay [4] came out at 42.

Take `C=CCn1c(C(=O)CN2CCSCC2)cs/c1=N/N=C\C=C\c1ccco1` [GATk2, 1-((Z)-3-allyl-2-((E)-((E)-3-(furan-2-yl)allylidene)hydrazono)-2,3-dihydrothiazol-4-yl)-2-thiomorpholinoethanone]: the IC50 in assay [5] (setting [6]) was 8 ± 1 µM.

As to `C=CCn1c(C(=O)CNCc2ccccc2)cs/c1=N/N=C\C=C\c1ccco1` [GATk4, 1-((Z)-3-allyl-2-((E)-((E)-3-(furan-2-yl)allylidene)hydrazono)-2,3-dihydrothiazol-4-yl)-2-(benzylamino)ethanone], the IC50 in assay [5] (setting [7]) and in assay [5] (setting [6]) was greater than 25 µM throughout.

`Cc1ccc(/C=C/C=N/N2CCN(CC=Cc3ccccc3)CC2)o1` [GAT0413, (E)-4-cinnamyl-N-((E)-3-(5-methylfuran-2-yl)allylidene)piperazin-1-amine]: the IC50 in assay [5] (setting [7]) was 5 to 25 µM; in assay [5] (setting [6]), 12 ± 2 µM; in assay [3] (Leishmania infantum), greater than 25 µM; in assay [4] (Leishmania braziliensis) it was greater than 25 µM. Besides, the “Trypanocidal activity” value in assay [5] was “the activity was restored”.
